# Measured values reported in US20260262643A1, “HERBICIDAL BENZOXAZINES” (FMC CORPORATION, priority 2022, published 2026).
# Key:
# ryegrass, Italian [1] = assay: Test C preemergence; type: in vivo, Lolium multiflorum
# In short: (§1)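 Greenhouse herbicide screen, 10-day duration. Test chemicals in solvent/surfactant blend were sprayed onto soil at sowing (pre) or onto 2–10 cm seedlings at one to two leaves (post); injury scored visually against controls, 0 no effect to 100 complete control.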
# ryegrass, Italian [2] = assay: Test C postemergence; type: in vivo, Lolium multiflorum; conditions: 10 days, 0 to 100 scale (0 no effect, 100 complete control)
# In short: as §1
# corn [3] = assay: Test C postemergence; type: in vivo, Zea mays; conditions: 10 days, 0 to 100 scale (0 no effect, 100 complete control)
# In short: as §1
# rice = assay: Test D flooded paddy test; type: in vivo, Oryza sativa; conditions: 250 g ai/ha, applied to paddy water, visual rating after 13 to 14 days, scale 0 to 100 (0 no effect, 100 complete control)
# In short: (§2)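 Visual ratings from 0, meaning no effect, to 100, meaning complete control, were assigned against untreated controls 13 to 14 days after compounds were added to the floodwater of pots kept 3 cm deep, with plants at the 2-leaf stage.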
# ragweed [4] = assay: Test C preemergence; type: in vivo, Ambrosia artemisiifolia
# In short: as §1
# horseweed = assay: Test C postemergence; type: in vivo, Erigeron canadensis; conditions: 10 days, 0 to 100 scale (0 no effect, 100 complete control)
# In short: as §1
# oat, wild [5] = assay: Test C preemergence; type: in vivo, Avena fatua
# In short: as §1
# barnyardgrass [6] = assay: Test C postemergence; type: in vivo, Echinochloa crusgalli; conditions: 10 days, 0 to 100 scale (0 no effect, 100 complete control)
# In short: as §1
# pigweed, palmer [7] = assay: Test C postemergence; type: in vivo, Amaranthus palmeri; conditions: 10 days, 0 to 100 scale (0 no effect, 100 complete control)
# In short: as §1
# sedge, umbrella = assay: Test D flooded paddy test; type: in vivo, Cyperus difformis; conditions: 250 g ai/ha, applied to paddy water, visual rating after 13 to 14 days, scale 0 to 100 (0 no effect, 100 complete control)
# In short: as §2
# oat, wild [8] = assay: Test C postemergence; type: in vivo, Avena fatua; conditions: 10 days, 0 to 100 scale (0 no effect, 100 complete control)
# In short: as §1
# ducksalad = assay: Test D flooded paddy test; type: in vivo, Heteranthera limosa; conditions: 250 g ai/ha, applied to paddy water, visual rating after 13 to 14 days, scale 0 to 100 (0 no effect, 100 complete control)
# In short: as §2
# soybean [9] = assay: Test C postemergence; type: in vivo, Glycine max; conditions: 10 days, 0 to 100 scale (0 no effect, 100 complete control)
# In short: as §1
# blackgrass [10] = assay: Test C preemergence; type: in vivo, Alopecurus myosuroides
# In short: as §1
# barnyardgrass [11] = assay: Test C preemergence; type: in vivo, Echinochloa crusgalli
# In short: as §1
# wheat [12] = assay: Test C preemergence; type: in vivo, Triticum aestivum
# In short: as §1
# galium = assay: Test C postemergence; type: in vivo, Galium aparine; conditions: 10 days, 0 to 100 scale (0 no effect, 100 complete control)
# In short: as §1
# corn [13] = assay: Test C preemergence; type: in vivo, Zea mays
# In short: as §1
# ragweed [14] = assay: Test C postemergence; type: in vivo, Ambrosia artemisiifolia; conditions: 10 days, 0 to 100 scale (0 no effect, 100 complete control)
# In short: as §1
# foxtail, giant [15] = assay: Test C postemergence; type: in vivo, Setaria faberi; conditions: 10 days, 0 to 100 scale (0 no effect, 100 complete control)
# In short: as §1
# pigweed, palmer [16] = assay: Test C preemergence; type: in vivo, Amaranthus palmeri
# In short: as §1
# foxtail, giant [17] = assay: Test C preemergence; type: in vivo, Setaria faberi
# In short: as §1
# soybean [18] = assay: Test C preemergence; type: in vivo, Glycine max
# In short: as §1
# blackgrass [19] = assay: Test C postemergence; type: in vivo, Alopecurus myosuroides; conditions: 10 days, 0 to 100 scale (0 no effect, 100 complete control)
# In short: as §1
# kochia [20] = assay: Test C preemergence; type: in vivo, Bassia scoparia
# In short: as §1
# kochia [21] = assay: Test C postemergence; type: in vivo, Bassia scoparia; conditions: 10 days, 0 to 100 scale (0 no effect, 100 complete control)
# In short: as §1
# wheat [22] = assay: Test C postemergence; type: in vivo, Triticum aestivum; conditions: 10 days, 0 to 100 scale (0 no effect, 100 complete control)
# In short: as §1
# barnyardgrass [23] = assay: Test D flooded paddy test; type: in vivo, Echinochloa crus-galli; conditions: 250 g ai/ha, applied to paddy water, visual rating after 13 to 14 days, scale 0 to 100 (0 no effect, 100 complete control)
# In short: as §2
# [24] = 500 g ai/ha, preemergence, 0 to 100 scale (0 no effect, 100 complete control)
# [25] = Preemergence, 125 g ai/ha, 0 to 100 scale, 0 no effect, 100 complete control
smiles,measurement,setting,value
CCc1ncn(-c2cccc(C(=O)N3CC(C(F)(F)F)Oc4c(C)cccc43)c2)n1 (stereo not shown) [Compound 344],"Ryegrass, Italian plant response rating","ryegrass, Italian [1]; [24]",100
same,"Plant response rating, Ryegrass, Italian","ryegrass, Italian [1]; [25]",90
same,"Plant response rating, Ryegrass, Italian","ryegrass, Italian [2]; 500 g ai/ha, postemergence",100
same,"Plant response rating, Ryegrass, Italian","ryegrass, Italian [2]; Postemergence, 125 g ai/ha",80
same,"Plant response rating, Corn","corn [3]; 500 g ai/ha, postemergence",90
same,"Plant response rating, Corn","corn [3]; Postemergence, 125 g ai/ha",30
same,"Plant response rating, Rice (Flood)",rice,0
same,Ragweed plant response rating,ragweed [4]; [24],50
same,"Plant response rating, Ragweed",ragweed [4]; [25],0
same,"Plant response rating, Horseweed","horseweed; 500 g ai/ha, postemergence",30
same,"Plant response rating, Horseweed","horseweed; Postemergence, 125 g ai/ha",30
same,"Oat, Wild plant response rating","oat, wild [5]; [24]",90
same,"Plant response rating, Oat, Wild","oat, wild [5]; [25]",0
same,"Plant response rating, Barnyardgrass","barnyardgrass [6]; 500 g ai/ha, postemergence",70
same,"Plant response rating, Barnyardgrass","barnyardgrass [6]; Postemergence, 125 g ai/ha",40
same,"Plant response rating, Pigweed, Palmer","pigweed, palmer [7]; 500 g ai/ha, postemergence",40
same,"Plant response rating, Pigweed, Palmer","pigweed, palmer [7]; Postemergence, 125 g ai/ha",20
same,"Plant response rating, Sedge, Umbrella (Flood)","sedge, umbrella",70
same,"Plant response rating, Oat, Wild","oat, wild [8]; 500 g ai/ha, postemergence",90
same,"Plant response rating, Oat, Wild","oat, wild [8]; Postemergence, 125 g ai/ha",60
same,"Plant response rating, Ducksalad (Flood)",ducksalad,30
same,"Plant response rating, Soybean","soybean [9]; 500 g ai/ha, postemergence",100
same,"Plant response rating, Soybean","soybean [9]; Postemergence, 125 g ai/ha",80
same,Blackgrass plant response rating,blackgrass [10]; [24],100
same,"Plant response rating, Blackgrass",blackgrass [10]; [25],90
same,Barnyardgrass plant response rating,barnyardgrass [11]; [24],100
same,"Plant response rating, Barnyardgrass",barnyardgrass [11]; [25],80
same,Wheat plant response rating,wheat [12]; [24],80
same,"Plant response rating, Wheat",wheat [12]; [25],40
same,"Plant response rating, Galium","galium; 500 g ai/ha, postemergence",100
same,"Plant response rating, Galium","galium; Postemergence, 125 g ai/ha",90
same,Corn plant response rating,corn [13]; [24],30
same,"Plant response rating, Corn",corn [13]; [25],20
same,"Plant response rating, Ragweed","ragweed [14]; 500 g ai/ha, postemergence",70
same,"Plant response rating, Ragweed","ragweed [14]; Postemergence, 125 g ai/ha",70
same,"Plant response rating, Foxtail, Giant","foxtail, giant [15]; 500 g ai/ha, postemergence",90
same,"Plant response rating, Foxtail, Giant","foxtail, giant [15]; Postemergence, 125 g ai/ha",70
same,"Pigweed, Palmer plant response rating","pigweed, palmer [16]; [24]",100
same,"Plant response rating, Pigweed, Palmer","pigweed, palmer [16]; [25]",90
same,"Foxtail, Giant plant response rating","foxtail, giant [17]; [24]",100
same,"Plant response rating, Foxtail, Giant","foxtail, giant [17]; [25]",100
same,Soybean plant response rating,soybean [18]; [24],50
same,"Plant response rating, Soybean",soybean [18]; [25],0
same,"Plant response rating, Blackgrass","blackgrass [19]; 500 g ai/ha, postemergence",90
same,"Plant response rating, Blackgrass","blackgrass [19]; Postemergence, 125 g ai/ha",80
same,Kochia plant response rating,kochia [20]; [24],100
same,"Plant response rating, Kochia",kochia [20]; [25],60
same,"Plant response rating, Kochia","kochia [21]; 500 g ai/ha, postemergence",80
same,"Plant response rating, Kochia","kochia [21]; Postemergence, 125 g ai/ha",70
same,"Plant response rating, Wheat","wheat [22]; 500 g ai/ha, postemergence",80
same,"Plant response rating, Wheat","wheat [22]; Postemergence, 125 g ai/ha",30
same,"Plant response rating, Barnyardgrass (Flood)",barnyardgrass [23],25
